Test results published in patent publication US20070141146A1, “Novel compositions” (SMITHKLINE BEECHAM PHARMCO PUERTO RICO INCORPORATE, priority 2003, published 2007).
Converted amounts (≈) assume the structure as drawn.

Test: pH dependent solubility of Compound A
Assay type: physicochemical
Text: The pH dependent solubility and potential rapid release in the stomach of Compound A causes difficulties in the formulation or oral dosage forms. It is desirable that release is controlled to take place over a period of hours. Such a formulation would require dosing only once a day, and this is likely to improve patient compliance.

solubility (aqueous buffer, pH 7, near neutral pH of the small intestine): ~80 µg/mL (≈ 0.224 mM)
solubility (simulated gastric fluid, pH 2, acidic regions associated with the stomach): ~5000 µg/mL (≈ 14 mM)
SMILES: CN(CCOc1ccc(CC2SC(=O)NC2=O)cc1)c1ccccn1 (centres unmarked) [Compound A, 5-[4-[2-(N-methyl-N-(2 pyridyl)amino)ethoxy]benzyl]thiazolidine-2,4-dione]
